Experimental data taken from US10112907B2, “Substituted indazoles for treating tendon and/or ligament injuries” (NOVARTIS AG, priority 2016, dated 2018).
Where two headings read alike, the source gives them in different places. Each block holds one compound with its values, some of them ahead of it.

How the values were obtained:
[1] = target: recombinant human Tyk2 (aa888-1187) (Homo sapiens (Human), UniProt P29597); experiment: Kinase selectivity panel, substrate peptide phosphorylation (Caliper); format: biochemical; settings: 45 uM ATP
[2] = tested on: Scleraxis (Scx) gene transcriptional activation in TT-D6 Scx-luciferase (ScxL) cell line; experiment: SCX-LUC in vitro assay (Scx-luciferase reporter); format: cell-based; settings: Mus musculus
[3] = tested on: Scleraxis (Scx) gene expression in rat tail tendon fascicles; experiment: Ex vivo assay, Scx mRNA in tendon fascicles (qPCR); format: cell-based, Sprague Dawley rat
tendon lesion = experiment: In vivo assay, endochondral ossification readout (Alcian blue) in tendon lesion; settings: 1 mg peri-tendinous injection 3 days post-surgery
Procedure: Animals were treated 3 days post-surgery with 1 mg of compound of example 32 in 10 ul of vehicle delivered by injection under the skin in the peri-tendinous region. Tendons were harvested 25 days post-treatment. Strong Alcian blue staining could be seen in the lesion in the vehicle treated group which is typical of endochondral tissue forming which further ossifies with time. […] Definiens Tissue Studio software was used for quantitative image analysis of the Alcian blue positive area. Serial step sections encompassing 2 mm of the lesion were used for quantification.

[4] = tested on: Tenomodulin (Tnmd) gene expression in rat tail tendon fascicles; experiment: Ex vivo assay, Tnmd mRNA in tendon fascicles (qPCR); format: cell-based, Sprague Dawley rat
[5] = tested on: collagen type I (Col1a2) gene expression in rat tail tendon fascicles; experiment: Ex vivo assay, Col1a2 mRNA in tendon fascicles (qPCR); format: cell-based, Sprague Dawley rat
Rat tail fascicles = experiment: Ex vivo fascicle assay, mechanical testing; set-up: species or system rat (Sprague Dawley); settings: 1 uM, 37° C., 4 weeks
Source text: Tail from skeletal mature rat (Sprague Dawley, female, 30-50 weeks old) was removed and kept on ice. Approximately 40 mm long segment was cut from the mid-portion of the tail. Rat tail fascicles (n=12) were carefully extracted from the segment. Fascicles were then randomly selected into three groups, fresh (n=4), vehicle (n=4) and (S)-(1-((4-(3-amino-4-methyl-1H-indazol-5-yl)-3-methylphenyl)sulfonyl)-4,4-difluoropyrrolidin-2-yl)methanol (Test Compound A hereinafter) treated (n=4). Biomechanical properties were measure immediately after extraction for the fresh group. […]
Samples were clamped for mechanical testing using a standard uniaxial material testing machine (ElectroPuls E3000, 50N load-cell, Instron, US) in a custom environmental testing chamber filled with PBS. Samples were preloaded to a position where crimp (macroscopic fascicle waviness) disappeared and initial length (L0) based on grip-to-grip distance was recorded. […] Sample lengths and corresponding forces were recorded to calculate engineering stress and strain. Young's moduli were calculated from the linear region of the stress-strain curves. […]

[6] = target: recombinant human Jak2 (aa808-1132) (Homo sapiens (Human), UniProt O60674); experiment: Kinase selectivity panel, substrate peptide phosphorylation (Caliper); format: biochemical
[7] = target: recombinant human Jak1 (aa 866-1154) (Homo sapiens (Human), UniProt P23458); experiment: as above; format: biochemical
[8] = target: recombinant human Jak3 (aa811-1124) (Homo sapiens (Human), UniProt P52333); format: biochemical
[9] = 96 h, Table 3, four days, read-out: Scx-Luc (EC50 μM)
[10] = 96 h, Table 3, four days, read-out: Ex vivo Scx (EC50 μM)
[11] = 96 h, Table 3, four days, read-out: Ex vivo Tnmd (EC50 μM)
[12] = 96 h, Table 3, four days, read-out: Ex vivo Col1a2 (EC50 μM)
[13] = read-out: Ex vivo SCX (EC50 uM)
[14] = read-out: Ex vivo Tnmd (EC50 uM)
[15] = read-out: Ex vivo Col1a2 (EC50 uM)
[16] = Table 1, read-out: Scx-Luc (EC50 uM)
[17] = Table 1, read-out: Ex vivo SCX (EC50 uM)
[18] = Table 1, read-out: Ex vivo Tnmd (EC50 uM)
[19] = Table 1, read-out: Ex vivo Col1a2 (EC50 uM)

Chain of recombinant human Jak1 (aa 866-1154) (P23458 866-1154): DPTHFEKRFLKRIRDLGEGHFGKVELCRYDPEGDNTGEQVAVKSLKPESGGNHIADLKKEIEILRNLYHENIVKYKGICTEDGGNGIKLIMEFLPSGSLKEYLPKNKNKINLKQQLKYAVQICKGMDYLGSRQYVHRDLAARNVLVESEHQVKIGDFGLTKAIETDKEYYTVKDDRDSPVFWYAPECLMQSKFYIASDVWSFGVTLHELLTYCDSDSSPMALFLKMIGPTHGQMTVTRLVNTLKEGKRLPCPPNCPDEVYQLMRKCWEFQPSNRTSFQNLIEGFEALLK
Chain of recombinant human Jak3 (aa811-1124) (P52333 811-1124): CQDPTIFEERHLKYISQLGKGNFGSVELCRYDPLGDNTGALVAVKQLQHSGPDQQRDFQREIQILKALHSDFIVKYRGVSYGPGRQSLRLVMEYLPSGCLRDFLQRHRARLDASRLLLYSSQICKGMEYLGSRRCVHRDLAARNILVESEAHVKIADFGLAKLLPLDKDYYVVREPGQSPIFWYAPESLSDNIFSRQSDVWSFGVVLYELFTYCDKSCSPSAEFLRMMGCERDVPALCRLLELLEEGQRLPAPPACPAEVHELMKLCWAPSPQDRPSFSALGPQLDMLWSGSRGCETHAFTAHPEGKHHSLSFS
Chain of recombinant human Tyk2 (aa888-1187) (P29597 888-1187): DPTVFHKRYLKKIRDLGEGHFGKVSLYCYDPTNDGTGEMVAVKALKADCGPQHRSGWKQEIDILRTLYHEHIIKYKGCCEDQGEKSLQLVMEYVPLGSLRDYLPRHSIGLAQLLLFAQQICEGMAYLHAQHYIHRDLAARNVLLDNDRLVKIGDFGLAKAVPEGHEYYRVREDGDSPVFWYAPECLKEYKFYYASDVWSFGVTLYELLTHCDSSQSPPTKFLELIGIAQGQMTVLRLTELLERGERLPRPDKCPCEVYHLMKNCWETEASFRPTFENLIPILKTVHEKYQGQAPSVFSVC

Structure (SMILES): CCS(=O)(=O)N1CC(CC#N)(n2cc(-c3ncnc4[nH]ccc34)cn2)C1
- IC50 [1]: 0.03 µM

- EC50 [2, 9]: 0.518 µM
- EC50 [3, 10]: 5.56 µM
- EC50 [4, 11]: 6.1 µM
- EC50 [5, 12]: 4.59 µM
Structure (SMILES): Cc1cc(S(=O)(=O)N2CC(F)(F)C[C@H]2CO)ccc1-c1ccc2[nH]nc(N)c2c1C [Example 32, (S)-(1-((4-(3-amino-4-methyl-1H-indazol-5-yl)-3-methylphenyl)sulfonyl)-4,4-difluoropyrrolidin-2-yl)methanol]
- effect on improper healing (aberrant differentiation towards chondrogenic and osteogenic lineages) (tendon lesion; 25 days post-treatment): able to counter some of the improper healing
- Endochondral ossification readout Alcian Blue positive (mm^2/section), Mean (tendon lesion; tendons harvested 25 days post-treatment): 25.09 mm^2/section
- tendon degeneration in unloaded condition (tendon structure, failure stress, Young's modulus) (Rat tail fascicles): could prevent the degeneration

- EC50 [2, 9]: 0.222 µM
- EC50 [3, 10]: 1.38 µM
- EC50 [4, 11]: 5.41 µM
- EC50 [5, 12]: 1.79 µM
Structure (SMILES): Cc1cc(S(=O)(=O)N(C)C2CC(F)(F)C2)ccc1-c1ccc2[nH]nc(N)c2c1C [Example 63, 4-(3-amino-4-methyl-1H-indazol-5-yl)-N-(3,3-difluorocyclobutyl)-N,3-dimethylbenzenesulfonamide]

- EC50 [2, 9]: 0.148 µM
- EC50 [3, 10]: 1.05 µM
- EC50 [4, 11]: 3.84 µM
- EC50 [5, 12]: 1.48 µM
Structure (SMILES): Nc1n[nH]c2ccc(-c3ccc(S(=O)(=O)N[C@@H]4CCC[C@@H]4O)cc3Cl)c(Cl)c12 [Example 69, 4-(3-amino-4-chloro-1H-indazol-5-yl)-3-chloro-N-((1R,2S)-2-hydroxycyclopentyl)benzenesulfonamide]

- EC50 [2, 9]: 0.632 µM
- EC50 [3, 10]: 5.23 µM
- EC50 [4, 11]: 6.51 µM
- EC50 [5, 12]: 3.77 µM
Structure (SMILES): COc1c(-c2ccc(S(=O)(=O)N[C@@H]3CCC[C@@H]3O)cc2C)ccc2[nH]nc(N)c12 [Example 73, 4-(3-amino-4-methoxy-1H-indazol-5-yl)-N-((1R,2S)-2-hydroxycyclopentyl)-3-methylbenzenesulfonamide]

- EC50 [2, 9]: 2.1 µM
- EC50 [3, 10]: 4.57 µM
- EC50 [4, 11]: 1.89 µM
- EC50 [5, 12]: 1.16 µM
Structure (SMILES): Cc1cc(S(=O)(=O)N2CC(F)(F)C2)ccc1-c1ccc2[nH]nc(N)c2c1C [Example 78, 5-(4-((3,3-difluoroazetidin-1-yl)sulfonyl)-2-methylphenyl)-4-methyl-1H-indazol-3-amine]

- EC50 ([2]; read-out: Scx-Luc (EC50 uM)): 0.12 µM
- EC50 [3, 13]: 3.13 µM
- EC50 [4, 14]: 0.74 µM
- EC50 [5, 15]: 2.64 µM
Structure (SMILES): N#CC[C@H](C1CCCC1)n1cc(-c2ncnc3[nH]ccc23)cn1 [reference compound]

Structure (SMILES): CC[C@@](C)(Nc1ccnc(-c2c[nH]c3ncccc23)n1)C(=O)NCC(F)(F)F [reference compound]
- IC50 [6]: 0.13 µM
- EC50 ([2]; read-out: Scx-Luc (EC50 uM)): 0.03 µM
- EC50 [3, 13]: 1.65 µM
- EC50 [4, 14]: 1.77 µM
- EC50 [5, 15]: 0.88 µM
- IC50 ([7]; 45 uM ATP): 0.02 µM

Structure (SMILES): N#CCNC(=O)c1ccc(-c2ccnc(Nc3ccc(N4CCOCC4)cc3)n2)cc1 [reference compound]
- EC50 [2, 16]: 0.12 µM
- EC50 [3, 17]: 3.92 µM
- EC50 [4, 18]: 3.27 µM
- EC50 [5, 19]: 4.67 µM

Structure (SMILES): Cc1cc(Nc2nc(N[C@@H](C)c3ncc(F)cn3)ncc2Cl)n[nH]1 [reference compound]
- IC50 ([6]; 45 uM ATP): 0.0007 µM
- IC50 ([8]; 45 uM ATP): 0.06 µM
- IC50 [1]: 0.002 µM
- EC50 ([2]; read-out: Scx-Luc (EC50 uM)): 0.008 µM
- EC50 [3, 13]: 3.37 µM
- EC50 [4, 14]: 3.3 µM
- EC50 [5, 15]: 2.61 µM
- IC50 ([7]; 45 uM ATP): 0.0002 µM

Structure (SMILES): CC1(C)CN(C(=O)c2ccc(-c3cccc4nc(NC(=O)C5CC5)nn34)cc2)C1 [reference compound]
- EC50 ([2]; read-out: Scx-Luc (EC50 uM)): 1.42 µM
- EC50 [3, 17]: 3.56 µM
- EC50 [4, 18]: 3.69 µM
- EC50 [5, 19]: 3.62 µM

Structure (SMILES): C[C@@H](O)c1nc2cnc3[nH]ccc3c2n1[C@H]1CC[C@H](C#N)CC1 [reference compound]
- EC50 ([2]; read-out: Scx-Luc (EC50 uM)): 2.69 µM
- EC50 [3, 17]: 4.27 µM
- EC50 [4, 18]: 6.38 µM
- EC50 [5, 19]: 6.62 µM

Structure (SMILES): CS(=O)(=O)NCc1nc2cnc3[nH]ccc3c2n1[C@@H]1C[C@H]2CC[C@@H]1C2 [reference compound]
- IC50 [6]: 0.19 µM
- IC50 [8]: 0.95 µM
- IC50 [1]: 0.14 µM
- EC50 [2, 16]: 0.18 µM
- EC50 [3, 17]: 3.22 µM
- EC50 [4, 18]: 4.57 µM
- EC50 [5, 19]: 3.76 µM

Structure (SMILES): N#Cc1ccc(COc2ccc(-c3cccc4nc(NC(=O)C5CC5)nn34)cc2)cn1 [reference compound]
- IC50 [6]: 0.03 µM
- IC50 [8]: 0.38 µM
- IC50 [1]: 0.11 µM
- EC50 [2, 16]: 0.22 µM
- EC50 [3, 17]: 5.77 µM
- EC50 [4, 18]: 1.31 µM
- EC50 [5, 19]: 0.9 µM
- IC50 [7]: 0.001 µM

Structure (SMILES): C[C@@H](O)c1nc2cnc3[nH]ccc3c2n1[C@H]1CCCOC1 [reference compound]
- EC50 [2, 16]: 0.82 µM
- EC50 [3, 17]: 3.31 µM
- EC50 [4, 18]: 4.19 µM
- EC50 [5, 19]: 4.32 µM

- EC50 [2, 16]: 0.02 µM
- EC50 [3, 17]: 0.36 µM
- EC50 [4, 18]: 5.99 µM
- EC50 [5, 19]: 0.4 µM
Structure (SMILES): O=C(Nc1nc2cccc(-c3ccc(OCc4ccc[n+]([O-])c4)cc3)n2n1)C1CC1 [reference compound]

Structure (SMILES): COc1ccc(-c2nc3c(NCC4CCNCC4)c(Cl)cnc3[nH]2)c(F)c1 [reference compound]
- EC50 [2, 16]: 0.51 µM
- EC50 [3, 17]: 0.47 µM
- EC50 [4, 18]: 0.08 µM
- EC50 [5, 19]: 1.15 µM

Structure (SMILES): C[C@@H](O)c1nc2cnc3[nH]ccc3c2n1[C@@H]1CCCOC1 [reference compound]
- EC50 ([2]; read-out: Scx-Luc (EC50 uM)): 1.34 µM
- EC50 [3, 17]: 0.08 µM
- EC50 [4, 18]: 6.11 µM
- EC50 [5, 19]: 4.66 µM

- EC50 ([2]; read-out: Scx-Luc (EC50 uM)): 4.32 µM
- EC50 [3, 13]: 5.34 µM
- EC50 [4, 14]: 6.93 µM
- EC50 [5, 15]: 5.01 µM
Structure (SMILES): O=C(Nc1nc2cccc(-c3ccc(CN4CCS(=O)(=O)CC4)cc3)n2n1)C1CC1 [reference compound]

Structure (SMILES): C1=C/COCc2cc(ccc2OCCN2CCCC2)Nc2nccc(n2)-c2cccc(c2)COC/1 [reference compound]
- EC50 ([2]; read-out: Scx-Luc (EC50 uM)): 1.06 µM
- EC50 [3, 17]: 3.32 µM
- EC50 [4, 18]: 6.71 µM
- EC50 [5, 19]: 3.11 µM
